These results are taken from patent US5494932A, “Sulfonic stilbene derivatives in the treatment of viral disease” (Merrell Dow Pharmaceuticals Inc., priority 1991, dated 1996).

Test [1] deals with HSV 2. Nature of the test: Plaque reduction assay, HSV 2. The test is classed as cell-based. As for the experimental part: (§1) Protocol: Plaque reduction assay. Treatment after adsorption during incubation.
Background: Plaques are areas of infected cells; plaque reduction assays count them against a control.

The subject of test [2] is HCMV. Nature of the test: Plaque reduction assay, HCMV. The test is classed as cell-based. As for the experimental part: as §1
The test system of test [3] is HIV-1 infected JM cells. Nature of the test: Treatment of HIV-1 infected JM cells with DIDS, SITS and ddC. The test is classed as cell-based, HIV-1 (human T cell line JM). Particulars: 5 μM. As for the experimental part: Protocol: JM cells were infected with HIV to give approximately 100 syncytia after 3 days. Virus adsorption was at room temperature for 2 hours. The cells were then washed thoroughly and distributed in wells of a tissue culture plate at a concentration of 1×10^5 cells/well. At 24 hours post infection either DIDS (100 μg/ml), SITS (100 μg/ml), or ddC (5 μM) were added to wells having infected cells. As virus controls, some wells had no drug added. At 42 hours post infection other wells received either ddC (5 μM), SITS (100 μg/ml), or DIDS (100, 50, 25, 12.5, 6.25 μg/ml). Syncytia were scored at 3 and 4 days post-infection and the supernatant fluids were harvested after 3 and 4 days for p24 core antigen determination.

Test [4] has as its system HIV-1. Conditions: cited from earlier work.
Test [5] relates to virus-induced cell fusion (gp120-CD4 dependent). Nature of the test: Anti-syncytial cocultivation assay: H9 cells chronically infected with HIV-1 RF mixed with uninfected C8166 cells. The class given is cell-based, HIV-1 RF; human H9 and C8166 cells. Particulars: for blocking virus-induced cell fusion and death: summary statement. The source says:
Syncytial cell formation depends on the interaction of gp120, expressed in the membranes of infected cells, with the CD4 antigen on neighboring cells (Camerini and Seed, 1990). We utilized a cell cocultivation model to examine the effect of the stilbene disulfonic acids on the gp120-CD4 dependent fusion process. This system consists of mixing H9 cells chronically infected with HIV-1 RF (gp120^+ cells) with uninfected C8166 cells (CD4^+ cells) as the fusion indicator. In this assay, cell fusion occurred within 2 to 3 hours of mixing at 37° C. and substantial syncytia were observed after a further 3 to 4 hours (FIG. 1, Panel A). […] These findings with the sulfated polysaccharides were consistent with a previous report (Montefiori et al., 1990).
The effect of the stilbene disulfonic acids and various sulfated polysaccharides on virus-induced cell fusion. In this assay, 10^5 H9 cells, chronically infected with the HIV-1 strain RF, were cocultured with 10^5 uninfected C8166 cells in the absence and presence of the test compounds. FIG. 1A: Positive control, no compound addition; FIG. 1B: 100 μg/ml DIDS; FIG. 1C: 100 μg/ml SITS; FIG. 1D: positive control; FIG. 1E: 10 μg/ml 500,000 MW dextran sulfate; FIG. 1F: 250 μg/ml heparin.
CD4^+ uninfected C8166 cells were seeded into 24-well trays ([…]) that contained growth medium and various concentrations of test compounds. H9 cells, chronically infected with the RF strain of HIV-1, were washed and then added as a source of gp120^+ cells at 10^5 cells/well except for the noncytopathic control: those wells received uninfected H9 cells. The trays were then incubated at 37° C. and the cocultures were observed between 1 and 6 hours p.i. Syncytia were recorded on photographic film.
Protocol: H9 cells chronically infected with RF strain of HIV-1 and uninfected C8166 cells were mixed in the presence of either DIDS, SITS, H2 DIDS, dextran sulfate, or heparin (100 μg/ml). The cells were observed after 2, 31/2 and 51/2 hours and the amount of cell fusion quantified.
Protocol: H9 cells chronically inected with HIV-1 and uninfected C8166 cells were mixed in the presence of either DIDS, SITS, H2 DIDS, dextran sulfate, heparin (at 100 μg/ml), OKT4 or OKT4A (at a 1/50 dilution). The cells were observed after 4 hours and the amount of cell fusion quantitied. OKT4 and OKT4A are monoclonal antibodies that bined the CD4 cell surface antigen.

The test system is the same in test [6]. Nature of the test: Cell fusion after pretreatment of uninfected C8166 cells, washing and mixing with chronically infected H9 cells. The class given is cell-based, HIV-1; human H9 and C8166 cells. Particulars: cells pretreated and washed before mixing with H9 cells. As for the experimental part:
In the next experiments, CD4+ C8166 cells were pretreated overnight with either DIDS (100 μg/ml), SITS (100 μg/ml) or drug-free medium. Unabsorbed compounds were removed by repeated washings and chronically infected H9 cells were then added. […] Thus, cell washing prior to mixing with the H9 cells oblated the protective effect observed above (FIG. 1, Panel E) when 500,000 MW dextran sulfate was continually present in the assay.
Pretreatment of CD4+ C8166 cells with DIDS blocks fusion with chronically infected H9 cells. In this experiment, C8166 cells were pretreated overight with various stilbene disulfonic acids or drug-free medium (fusion control). The cells were washed, incubated with chronically infected H9 cells and syncytia were photographed at 6 hours post-mixing. Pretreatment conditions were as follows: […]: 100 μg/ml SITS; FIG. 2B: drug-free medium; and FIG. 2C: 100 μg/ml DIDS.
In pretreatment experiments, CD4^+ C8166 cells were maintained in serum-free medium (RPMI 1640 plus human transferrin 50 μg/ml, bovine insulin 20 μg/ml, bovine serum albumin 2 mg/ml) and were exposed to compound by overnight incubation. Treated cells were washed twice in fresh serum-free medium and then cocultured with chronically infected H9 cells in serum-free medium. Otherwise, cell numbers, assay conditions and scoring of syncytia were as described above.
Protocol: C8166 cells were pretreated for 2.5 hours with either DIDS, SITS or H2 DIDS (at 500 and 250 μg/ml). The cells were then washed three times and mixed with H9 cells chronically infected with HIV-1. Cell fusion was quantified after 4 and 24 hours.

Read-outs that look alike come from different tables or passages of the source.

In the case of `Nc1nc2c(ncn2COCCO)c(=O)[nH]1` [Acyclovir, reference compound], the Plaque counts is recorded as 44 in test [1] (0.1 μg/ml, first count); 34 in test [1] (0.1 μg/ml, second count); 31 in test [1] (1 μg/ml, first count); 31 in test [1] (1 μg/ml, second count); 29 in test [1] (1 μg/ml, third count); 0 in test [1] (10 μg/ml, first count). Moreover, the Plaque counts in test [1] (10 μg/ml, second count) turned out to be 1; in test [1] (10 μg/ml, third count), 0; in test [1] (100 μg/ml, first count), 0; in test [1] (100 μg/ml, second count), 0; in test [1] (100 μg/ml, third count), 0. For the same molecule, the activity at 0.1 µg/mL in test [1] (0.1 μg/ml, read-out: Mean % VC (plaques)) was found to be 70%. For the same molecule, in test [1] (1 μg/ml, read-out: Mean % VC (plaques)), the activity at 1 µg/mL worked out at 54%. The activity at 10 µg/mL in test [1] (10 μg/ml, read-out: Mean % VC (plaques)) stood at 0%. For the same molecule, the activity at 100 µg/mL in test [1] (100 μg/ml, read-out: Mean % VC (plaques)) is 0%.
Consider `Nc1nc(O)c2ncn(COC(CO)CO)c2n1` [Gancyclovir, reference compound], for which the Plaque counts in test [2] (0.1 μg/ml, first count) is 34; in test [2] (0.1 μg/ml, second count), 39; in test [2] (1 μg/ml, first count), 6; in test [2] (1 μg/ml, second count) it was 13; in test [2] (1 μg/ml, third count), 1; in test [2] (10 μg/ml, first count), 3. For the same molecule, the Plaque counts came to 2 in test [2] (10 μg/ml, second count); 7 in test [2] (10 μg/ml, third count); 0 in test [2] (1000 μg/ml, first count); 0 in test [2] (1000 μg/ml, second count); 0 in test [2] (1000 μg/ml, third count). The activity at 0.1 µg/mL in test [2] (Human betaherpesvirus 5, 0.1 μg/ml, read-out: Mean % VC (plaques)) was > 100%. Moreover, in test [2] (Human betaherpesvirus 5, 1 μg/ml, read-out: Mean % VC (plaques)), the activity at 1 µg/mL was 22%. In addition, the activity at 10 µg/mL in test [2] (Human betaherpesvirus 5, 10 μg/ml, read-out: Mean % VC (plaques)) was 10%. Besides, the activity at 1000 µg/mL in test [2] (Human betaherpesvirus 5, 1000 μg/ml, read-out: Mean % VC (plaques)) was 0%.
Regarding `Nc1ccn([C@H]2CC[C@@H](CO)O2)c(=O)n1` [ddC, reference compound], the entries for the “Mean syncytia/well 3 days p.i.” value in test [3] (added 24 hr) and in test [3] (added 42 hr) were 65 and “As VC”, respectively. Further, the “Mean syncytia/well 4 days p.i.” value is 51 in test [3] (added 24 hr) and “As VC” in test [3] (added 42 hr). Moreover, the “p24 antigen 3 days p.i.” value in test [3] (added 24 hr) worked out at 9000 pg/mL; in test [3] (added 42 hr), 17000 pg/mL. The “p24 antigen 4 days p.i.” value in test [3] (added 24 hr) came to 3100 pg/mL; in test [3] (added 42 hr), 67000 pg/mL. Also, the activity at 5 µM in test [3] (Human immunodeficiency virus 1, 72 h, added 24 hr, read-out: p24 antigen 3 days p.i., % control) is 19%; in test [3] (Human immunodeficiency virus 1, 72 h, added 42 hr, read-out: p24 antigen 3 days p.i., % control), 36%; in test [3] (Human immunodeficiency virus 1, 96 h, added 24 hr, read-out: p24 antigen 4 days p.i., % control) it was 3.5%; in test [3] (Human immunodeficiency virus 1, 96 h, added 42 hr, read-out: p24 antigen 4 days p.i., % control) it was 75%.
For Dextran Sulfate [reference compound], in test [4], the “inhibition of HIV-1 replication in vitro” value is “highly effective inhibitors”. In test [5] (100 μg/ml, virus control +++), the “Syncytia after 3 1/2 hrs” value was found to be 0 and the “Syncytia after 5 1/2 hrs” value turned out to be 0.
Take “Dextran sulfate (8,000) [reference compound]”: in test [5] (100 μg/ml, at the time of cell mixing), the “cell fusion / syncytia” value is recorded as “totally ineffective”. Besides, the “blocking virus-induced cell fusion and death” value in test [5] is “ineffective at blocking virus-induced cell fusion and death”.
Turning to Heparin [reference compound], the “protective effect after pretreatment” value in test [6] is on record as “no protective effect”. Moreover, in test [4], the “inhibition of HIV-1 replication in vitro” value was “highly effective inhibitors”. Further, the “cell fusion relative to nontreated virus control” value in test [5] (250 μg/ml, Panel F) is “totally ineffective”. In test [5], the “blocking virus-induced cell fusion and death” value was “ineffective at blocking virus-induced cell fusion and death”.
pentosan polysulfate: the “inhibition of HIV-1 replication in vitro” value in test [4] is reported as “highly effective inhibitors”.
